Measurements taken from BindingDB's records for doi:10.1021/jm00127a026 (Medical University of South Carolina, 1989).

Assay: The apparent Km of compound as a substrate for partially purified mouse liver Folyl-polyglutamate synthase
Conditions: read-out: Ki

Row | SMILES | apparent Km [µM]
1 | NCCCC(NC(=O)c1ccc(NCc2ccc3nc(N)nc(N)c3c2Cl)cc1)C(=O)O (stereo not given) | 0.0017
2 | NCCCC(NC(=O)c1ccc(OCc2ccc3nc(N)[nH]c(=O)c3c2)cc1)C(=O)O (stereo not given) | 5.9
3 | NCCCC(NC(=O)c1ccc(SCc2ccc3nc(N)[nH]c(=O)c3c2)cc1)C(=O)O (stereo not given) | 2.8
4 | NCCCC(NC(=O)c1ccc(OCc2ccc3nc[nH]c(=O)c3c2)cc1)C(=O)O (stereo not given) | 1.2
5 | NCCCC(NC(=O)c1ccc(SCc2ccc3nc[nH]c(=O)c3c2)cc1)C(=O)O (stereo not given) | 0.42
